Tests used:
[1] = Preliminary solution stability (congruent/incongruent dissolution) in organic solvents, PXRD of residual phases; type: physicochemical
From the text: The most convenient way to determine the solubility product of a cocrystal is to ensure that the solution and the cocrystal are at thermodynamic equilibrium, i.e., that the cocrystal is congruently soluble in the chosen solvent. In this work, acetonitrile was primarily utilized as a medium to carry out solubility experiments. […] (1:1) and [CBZ + 3AcAmBA] […] In the case of [CBZ + 3AcAmBA] (1:1), incongruent solubility of the cocrystal was expected given the high solubility ratio of the components in acetonitrile (Table S6). This is likely to result in an asymmetric ternary phase diagram with a narrow stability region for the [CBZ + 3AcAmBA] (1:1) cocrystal. […] It is reasonable to assume that the poor solution stability of the [CBZ + 2AcAmBA] (1:1) cocrystal is not due to the large solubility difference between CBZ and 2AcAmBA but rather because of the low intrinsic thermodynamic stability of the binary solid form caused by the lack of energy gain associated with cocrystal formation, which leads to a higher solubility in all solvents considered. […] (1:1) cocrystal compared to the parent pure components (~40 °C, Figure S2), implicitly corroborate this supposition. Since no suitable solvent for solubility studies of [CBZ + 2AcAmBA] (1:1) could be found, this system was not further explored. The [CBZ + 3AcAmBA]

[2] = type: physicochemical; details: for Scc, solubility of the cocrystal: pH 2; for [CF]eu, eutectic concentration of coformer / [CBZ]eu, eutectic concentration of CBZ / Keu, eutectic constant: pH 2.0, 310.2 K; for [CF]eu, eutectic concentration of coformer: eutectic point; for [CBZ]eu, eutectic concentration of CBZ: eutectic point (drug and cocrystal in equilibrium with solution); for Keu, eutectic constant: Keu = [CF]eu/[CBZ]eu
Method: The saturation shake-flask method was used to measure the aqueous solubility of the CBZ cocrystals in a pH 2.0 buffer solution at the eutectic point, where drug and cocrystal are in equilibrium with the solution. The eutectic point between the cocrystal and the drug was reached by suspending 80 mg of the cocrystal and 30 mg of CBZ in 2 mL of the buffer solution. The obtained suspension was stirred continuously for 72 h at 37.0 ± 0.1 °C. After equilibration, the final pH of the solution was measured. The suspension was diluted with the mobile phase after being filtered through a […] PTEF filter. Concentrations of compounds were analyzed by HPLC. The solid phases after the experiment were characterized by PXRD.
The column temperature was set to 40 °C.

[3] = Cocrystal formation thermodynamics from solubility data (Kf, ΔformG, ΔformH, ΔformS); type: physicochemical; details: for ΔformH: van't Hoff, 293.15-313.15 K
From the text: It is known that the relative stability of a cocrystal with respect to a physical mixture of the parent constituents at a given temperature can be quantitatively expressed in terms of the free-energy change, ΔformG, of the cocrystallization reaction. Analyzing the temperature dependence of the Gibbs formation energy can provide further information on the enthalpy and entropy contributions to the driving force of the process as well as help to estimate the thermodynamic transition temperature, which determines the stability domains of a cocrystal and its individual constituents. The experimental assessment of ΔformG is based on solubility data for the starting molecules and the corresponding cocrystal in the same solvent at a predetermined temperature using the equation below:(3) ΔformG=−RTlnap,Ax×ap,By/acc,Ax×acc,By=−RTlnap,Ax×ap,By/Ksp=−RTlnKf, where ap,A and ap,B represent the activities of pure A and B compounds in a saturated solution; acc,A and acc,B are the activities of the cocrystal components in a solution, in equilibrium with pure cocrystal; Ksp is the solubility product of a cocrystal; T is the temperature; x and y are the stoichiometric coefficients; and Kf is an equilibrium constant at the experimental temperature.
Using the van’t Hoff expression, the enthalpy of the cocrystallization process, ΔformH, may be estimated by evaluating the Kf values at various temperatures (assuming that ΔformH is a constant within the selected temperature range):(4) dlnKf/d(1/T)=−ΔformH/R
The entropy of cocrystal formation, ΔformS, can be estimated from (5) ΔformS=ΔformH−ΔformG/T
Even though the activities in Equation (3) are usually approximated by the corresponding molar concentration while neglecting the activity coefficients, a more valid approximation implies that the activity coefficients for the two solute species are constant along the cocrystal solubility line and equal to the activity coefficients of the pure components in the saturated solutions in the same solvent and temperature. […] Table S5 contains the solubility values of CBZ, coformers, and the CBZ cocrystals with emodin, paeonol, nicotinamide, and glutaric acid in various organic solvents.

[4] = Solubility of cocrystals and their constituents in organic solvents (shake-flask, HPLC); details: acetonitrile, value is C∙10^2
Method: For the [CBZ + 3AcAmBA] (1:1) cocrystal, methanol was used. For [CBZ + 4AcAmBA] (1:1), all the experiments were performed in acetonitrile. An excess of the solid was placed in an Eppendorf tube, and 2 mL of solvent was added. The resulting suspension was shaken in a ThermoMixer C (Eppendorf, Hamburg, Germany) at 800 rpm for 48 h at the specified temperature. Subsequently, the saturated solution was separated using a 0.22 μm PTEF filter, diluted, and analyzed using HPLC. The solid phases after the experiment were collected and characterized by PXRD. Each experiment was repeated three times.
The HPLC was performed on an LC-20 AD Shimadzu Prominence model (Shimadzu, Kyoto, Japan) equipped with a PDA detector and a Luna C-18 column (150 mm × 4.6 mm i.d., 5 μm particle size, and 100 Å pore size). The column temperature was set to 40 °C. To achieve the proper separation of the cocrystal components, different ratios of the mobile phase, consisting of acetonitrile and a 0.1% aqueous solution of trifluoroacetic acid (35:65 v/v), were used. The flow rate was 1.0 mL·min^−1, and the injection volume was 20 μL. The UV detection of carbamazepine, 2-acetamidobenzoic acid, 3-acetamidobenzoic acid, and 4-acetamidobenzoic acid was carried out at the wavelengths of 285 nm, 249 nm, 220 nm, and 266 nm, respectively.

[5] = 298.2K, listed as [CBZ+4AcAmBA] (1:1)

CC(=O)Nc1ccccc1C(=O)O.NC(=O)N1c2ccccc2C=Cc2ccccc21 [[CBZ + 2AcAmBA] (1:1)]
dissolution behaviour / solution stability ([1]; acetonitrile): dissolved incongruently
dissolution behaviour / solution stability ([1]; several other tested solvents, including methanol, ethanol, and acetone): incongruent behavior
Scc, solubility of the cocrystal [2]: (2.8 ± 0.1)·10^−3 Mol·L^−1
[CF]eu, eutectic concentration of coformer [2]: (7.5 ± 0.1)·10^−3 Mol·L^−1
[CBZ]eu, eutectic concentration of CBZ [2]: (1.10 ± 0.06)·10^−3 Mol·L^−1
Keu, eutectic constant [2]: 6.8 ± 0.4

CC(=O)Nc1ccc(C(=O)O)cc1.NC(=O)N1c2ccccc2C=Cc2ccccc21 [[CBZ + 4AcAmBA] (1:1)]
Scc, solubility of the cocrystal [2]: (0.80 ± 0.02)·10^−3 Mol·L^−1
[CF]eu, eutectic concentration of coformer [2]: (6.4 ± 0.2)·10^−4 Mol·L^−1
[CBZ]eu, eutectic concentration of CBZ [2]: (1.00 ± 0.05)·10^−3 Mol·L^−1
Keu, eutectic constant [2]: 0.64 ± 0.04
T·ΔformS ([3]; 298.2K): -0.574 ± 0.14 kcal/mol
lnKf ([3]; 298.2K): 2.86 ± 0.03
ΔformG ([3]; 298.2K): -1.69 ± 0.019 kcal/mol
T·ΔformS [3, 5]: -0.574 ± 0.14 kcal/mol
ΔformG [3, 5]: -1.69 ± 0.019 kcal/mol
ΔformH ([3]; 298.2K): -2.27 ± 0.14 kcal/mol
ΔformH [3, 5]: -2.27 ± 0.14 kcal/mol
lnKf ([3]; acetonitrile, 293.15 K): 2.93±0.04
∆formG ([3]; acetonitrile, 293.15 K): -1.7 ± 0.022 kcal/mol
lnKf ([3]; acetonitrile, 298.15 K): 2.86±0.03
∆formG ([3]; acetonitrile, 298.15 K): -1.69 ± 0.019 kcal/mol
lnKf ([3]; acetonitrile, 303.15 K): 2.82±0.03
∆formG ([3]; acetonitrile, 303.15 K): -1.7 ± 0.017 kcal/mol
lnKf ([3]; acetonitrile, 308.15 K): 2.75±0.02
∆formG ([3]; acetonitrile, 308.15 K): -1.68 ± 0.012 kcal/mol
lnKf ([3]; acetonitrile, 313.15 K): 2.67±0.03
∆formG ([3]; acetonitrile, 313.15 K): -1.66 ± 0.019 kcal/mol
Ccc,4AcAmBA∙10^2, coformer concentration in equilibrium with cocrystal ([4]; 293.15 K): 0.880±0.016 mol/l
Ccc,CBZ∙10^2, CBZ concentration in equilibrium with cocrystal ([4]; 293.15 K): 0.875±0.014 mol/l
Ccc,4AcAmBA∙10^2, coformer concentration in equilibrium with cocrystal ([4]; 298.15 K): 1.046±0.010 mol/l
Ccc,CBZ∙10^2, CBZ concentration in equilibrium with cocrystal ([4]; 298.15 K): 1.013±0.015 mol/l
Ccc,4AcAmBA∙10^2, coformer concentration in equilibrium with cocrystal ([4]; 303.15 K): 1.222±0.017 mol/l
Ccc,CBZ∙10^2, CBZ concentration in equilibrium with cocrystal ([4]; 303.15 K): 1.198±0.007 mol/l
Ccc,4AcAmBA∙10^2, coformer concentration in equilibrium with cocrystal ([4]; 308.15 K): 1.472±0.008 mol/l
Ccc,CBZ∙10^2, CBZ concentration in equilibrium with cocrystal ([4]; 308.15 K): 1.428±0.009 mol/l
Ccc,4AcAmBA∙10^2, coformer concentration in equilibrium with cocrystal ([4]; 313.15 K): 1.707±0.030 mol/l
Ccc,CBZ∙10^2, CBZ concentration in equilibrium with cocrystal ([4]; 313.15 K): 1.684±0.022 mol/l
